Experimental data published in patent US20130209515A1, “ANTI-INFECTIVE AND IMMUNOMODULATORY COMPOUNDS” (priority 2005, published 2013).
In brackets after ≈: the same amount, converted by molar mass. Entries after “also recorded” stand apart in the source; their conditions may differ.

What was measured:
P. aeruginosa PA14 [1] = test: Mouse burn and infection (BI) model, survival; assay type: in vivo, mice; conditions: for average survival after 5 days: IV tail vein 100 μl of 10 mM, four days prior to burn/infection, n=8-10, control 10% (FIG. 9); for final mice survival rate at 7 days post burn and infection: single IV injection at 6 hrs (100 μl 20 mM), control 10% (FIG. 24)
Description: Burn wound infection in mice can be established by subcutaneous or topical administration of the bacteria to the sites of the burn. […] Six-week old CD-1 male mice were used.
To induce infection, the mice were placed under general anesthesia via intraperitonial injection of 40 mg/kg Pentobarbital, the ventral surface was shaved, and a central skin fold elevated was simultaneously compressed from both sides for 5 seconds using two 2×2 cm metal blocks preheated to 95-100° C., to produce a non-lethal 5-8% full thickness burn with negligible focal necrosis of the underlying muscle or damage to underlying visceral organs. IP saline was administered for fluid resuscitation for ≧5% total body surface burns: avoiding vital structures, saline was injected into the left lower quadrant of the abdominal area of the anesthetized animal post-burn. This burn procedure was followed by mid-eschar inoculation of 100 μL of bacterial suspension containing ˜5×10^5 CFU. The animals were returned to their cages and provided mouse chow and water ad libitum. Animals typically recover from the anesthesia within 20 minutes post-administration. Criteria used to evaluate anesthesia recovery are state of alertness, mobility, and reaction to surrounding stimuli. Mice were monitored twice a day for symptoms and deaths, with increased monitoring every 6-8 hours during the period of greatest potential for infection and clinical disease.
The mouse full-thickness skin thermal injury infection model was used to test if 2AA restricts P, aeruginosa virulence. This model is predictable and reproducible; clinically relevant; and can lead to MODS and mortality. Briefly, a ˜15% total burn surface area (TBSA) thermal scalding injury is produced on the abdominal skin, leaving the underlying muscle intact, and the inoculum is delivered into the scald eschar. […]

P. aeruginosa = P. aeruginosa growth kinetics (spectrophotometric analysis at 600 nm); assay type: cell-based, Pseudomonas aeruginosa; conditions: for bacterial growth (PA14): FIG. 23B
Source text: P. aeruginosa strains include wild-type (PA14, see Rahme et al., Science 268:1899-1902, 1995); a PA14 mvfR mutant (Cao et al., Proc. Natl. Acad. Sci. USA 98:14613-14618, 2001); a pqsE deletion mutant, generated via pEX18Ap allelic replacement by using sucrose selection (Hoang et al., Gene 212:77-86, 1998), resulting in a 570-bp nonpolar deletion covering 65% of the sequence (Déziel et al. PNAS); and the pqsA (U479) TnphoA mutant obtained from the PA14 Transposon Insertion Mutant Database. Bacteria were grown in LB broth or on 1.5% Bacto-agar (Difco) LB plates. Freshly plated cells served as inoculum.
P. aeruginosa was grown in the presence of 2 mM of 2′-aminoacetophenone (2AA), 3′-aminoacetophenone (3AA), 4′-aminoacetophenone (4AA), or 2′-nitroacetophenone (2NA), or in the absence of any of these compounds (control). Bacterial growth was followed over 26 hours by spectrophotometric analysis at 600 nm.
Bacterial growth was also followed over 35 hours by spectrophotometric analysis at 600 nm.

[2] = test system: 4-hydroxy-2-alkylquinoline (HAQ) production; assay type: cell-based, Pseudomonas aeruginosa
PqsA = target: T1, PqsA (Pseudomonas aeruginosa, UniProt Q9I4X3); test: Anthranilic acid accumulation and AA competition in PA14 cultures; assay type: cell-based; conditions: for accumulation of anthranilic acid: PA14 culture with inhibitor vs control (FIG. 31); for effect of increasing concentrations of AA on inhibition of HAQ production: culture containing 1.5 mM inhibitor (FIG. 32)
T1 construct: endogenous in cells; host or cells: P. aeruginosa PA14 cultures
Source text: In P. aeruginosa anthranilic acid is also produced by the enzymatic systems PhnAB or TrpEG. […] This accumulation could be due to inhibition of PqsA or of any enzyme downstream in the HAQ biosynthesis. […] This reversal could only be explained by a competitive inhibition of an enzyme acting on AA. Because pqsA is the only enzyme of the pqsA-E operon to present similarities with enzymes involved in the activation of aromatic acid group, like the one found in anthranilic acid, we conclude that these inhibitors act on PqsA in a competitive manner with its substrate AA.

pyocyanin production = test: Pyocyanin production; assay type: cell-based, Pseudomonas aeruginosa
[3] = Toxicity of IV 6-FABA in burned mice; assay type: in vivo
Description: Initial experiments were aimed at defining an appropriate mouse administration protocol for 6-FABA, with regard to concentration, time of administration following infection, and inhibition of virulence. […] Accordingly, burn and PA14 infected (BI) mice were subsequently administered a single injection of 20 mM 6-FABA at 6 or 12 hr post BI; and double injections at 6 and 24 hr BI.

P. aeruginosa PA14 [4] = test: PA14 systemic spread in BI mice (cfu in muscle and blood); assay type: in vivo
Description: Furthermore, 6-FABA, 6CABA, and 4CABA efficacy in limiting PA14 systemic spread was assessed by comparing burn mice infected with PA14 and then treated with the compounds at 6 hr BI with control untreated BI mice. For each experimental set of n=18, 6 mice were sacrificed at 24 hr, and bacteria numbers were determined in muscle tissue underlaying or adjacent to the […] site and in blood. The inoculation procedure used in the thermal injury model greatly limits the initial delivery of bacteria to blood and muscle, so bacteria in these tissues reflect post-infection systemic spread.
In an experiment to determine the whether 6-fluoro-2-aminobenzoic acid (6FABA) affects the systemic spread of P. aeruginosa cells in a mouse burn/infection model, the results of which are shown in FIGS. 28A and 28B, 15 mice were treated with 100 μL of a 20 mM solution of 6-FABA 6 hrs or 12 hours post-burn and infection, and the PA14 cfu/mg of tissue (i.e., in blood and in muscle adjacent to the burn and infection) was determined at 24 hours and 36 hours post-burn.

physchem = conditions: saline or isotonic
[5] = test system: pqsA-LacZ (MvfR-dependent pqs operon transcription); test: pqsA-LacZ expression (β-galactosidase activity); assay type: cell-based, Pseudomonas aeruginosa; conditions: PA14 pqsH/pqsA double mutant, compound added at OD600 1.0 (FIG. 19)
Description: To assess the effect of this compound on bacteria, we analyzed the production of HAQs in the presence of 2AA using LC/MS. The bacteria were propagated in the presence of 3 mM 2AA, culture media was collected at different time points, and the HHQ, PQS and HQNO production was measured in the supernatant. […] Since 2AA addition to the P. aeruginosa culture inhibits the production of HHQ and PQS, we assessed the transcription from the pqs operon using a pqsA-LacZ fusion.
To further, understand the mechanism of inhibition of the pqs operon by 2AA, we carried out competition assays of PQS and HHQ with 2AA. The expression of pqsA-LacZ in pqsApqsH double mutants was assessed. Bacteria were grown to an OD600 of 1.0 and HHQ and PQS were added either alone or with 2AA. LacZ expression was assayed at different stages of the growth, using standard protocols.
To determine whether HHQ activates MvfR expression, we generated a PA14pqsH/pqsA double mutant that lacks all HAQ production, and assessed pqsA-lacZ activity in the absence and presence of HHQ and PQS.

MvfR = target: T2, MvfR (Pseudomonas aeruginosa, UniProt Q9I4X0); test: MvfR binding to radiolabeled pqsA promoter DNA fragment (gel shift); conditions: 40 pM ligand, E. coli cell lysate containing MvfR (FIGS. 20A, 20B)
T2 construct: made in house; host or cells: E. coli (cell lysate, not purified)
Description: FIGS. 20A and 20B show binding of MvfR to the pqsA promoter. FIG. 20A is a gel showing that MvfR binds to the pqsA promoter in the absence of HHQ or PQS, but that binding is increased in the presence of HHQ or PQS. A ^32P-labeled 174-bp DNA fragment containing the pqsA promoter region was mixed with E. coli cell lysate containing MvfR minus ligand (lanes 2-3); plus 40 pM HHQ (lanes 4-5); or plus 40 pM PQS (lanes 6-7). Protein added per reaction: lane 1, 0 ng/μl; lanes 2, 4, and 6, 30 ng/μl; and lanes 3, 5, and 7, 60 ng/μl. HHQ and PQS were added at the final concentration of 40 pM. Reaction mixtures were electrophoresed on 5% non-denatured polyacrylamide gels. FIG. 20B is a graph showing the densitometry of shifted bands.
To determine if HHQ potentiates MvfR DNA-binding, a 174-bp radiolabeled pqsA promoter region DNA fragment containing the potential LysR-box sequence was mixed with E. coli cell lysate containing MvfR.

[6] = 2 mM compound, followed over 26 hours at 600 nm (FIG. 4)

T1 sequence (Q9I4X3 whole entry): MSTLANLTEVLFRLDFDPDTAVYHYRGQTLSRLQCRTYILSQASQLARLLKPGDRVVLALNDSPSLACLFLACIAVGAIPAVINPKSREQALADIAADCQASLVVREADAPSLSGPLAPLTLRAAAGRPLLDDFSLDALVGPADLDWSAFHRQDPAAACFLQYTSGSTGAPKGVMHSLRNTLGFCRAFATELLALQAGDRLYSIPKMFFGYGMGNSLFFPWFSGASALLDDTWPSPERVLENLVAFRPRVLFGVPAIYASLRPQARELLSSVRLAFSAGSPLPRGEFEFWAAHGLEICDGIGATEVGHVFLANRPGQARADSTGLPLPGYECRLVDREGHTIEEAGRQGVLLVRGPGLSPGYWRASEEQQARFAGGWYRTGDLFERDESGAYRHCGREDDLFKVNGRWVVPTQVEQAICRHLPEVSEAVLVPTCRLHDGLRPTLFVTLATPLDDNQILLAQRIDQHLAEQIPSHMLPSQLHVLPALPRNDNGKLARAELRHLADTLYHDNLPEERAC
T2 sequence (Q9I4X0 whole entry, the tested form may be a part): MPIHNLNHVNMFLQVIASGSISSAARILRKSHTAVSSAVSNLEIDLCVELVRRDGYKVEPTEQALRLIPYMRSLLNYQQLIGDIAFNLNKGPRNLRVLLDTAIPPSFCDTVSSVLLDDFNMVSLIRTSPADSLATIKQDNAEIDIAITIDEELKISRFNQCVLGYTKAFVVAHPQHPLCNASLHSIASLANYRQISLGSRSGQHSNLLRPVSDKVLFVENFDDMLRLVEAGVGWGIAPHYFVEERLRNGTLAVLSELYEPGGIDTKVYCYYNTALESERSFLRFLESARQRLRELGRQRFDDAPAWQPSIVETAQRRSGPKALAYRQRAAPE

CC(=O)c1cccc(O)c1N [2-amino-3 hydroxy acetophenone]
protection (survival curves) (P. aeruginosa PA14 [1]; 10 mM solutions IV 4 days pre-BI (FIGS. 11A, 11B)): decreased protective efficacy versus 2AA

CC(=O)c1ccccc1[N+](=O)[O-] [2NA, 2′-nitroacetophenone]
Bacterial growth (P. aeruginosa; [6]): only slightly retarded
average survival after 5 days (P. aeruginosa PA14 [1]): 50%

CC(=O)c1cccc(N)c1 [3AA, 3′-aminoacetophenone]
Bacterial growth (P. aeruginosa; [6]): only slightly retarded
average survival after 5 days (P. aeruginosa PA14 [1]): 50%

Nc1cc(Cl)ccc1C(=O)O [4-CABA, 4-chloro-2-aminobenzoic acid]
Bacterial growth (P. aeruginosa; 1.5 mM compound, followed over 35 hours at 600 nm (FIG. 6)): only slightly retarded
bacterial growth (PA14) (P. aeruginosa): without affecting bacterial growth
HAQ production / HAQs synthesis [2]: completely halted
inhibition of 4-hydroxy-2-alkylquinoline (HAQ) production [2]: potent inhibitors
production of the principal members of the three main HAQ families (HHQ, HQNO, PQS) [2]: dramatically decreased
final mice survival rate at 7 days post burn and infection (P. aeruginosa PA14 [1]): ~50%
accumulation of anthranilic acid (PqsA): transient accumulation
pyocyanin production (pyocyanin production): without abrogating pyocyanin production

Nc1cc(F)ccc1C(=O)O [4-FABA, 4-fluoro-2-aminobenzoic acid]
inhibition of 4-hydroxy-2-alkylquinoline (HAQ) production [2]: potent inhibitors

CC(=O)c1ccc(N)cc1 [4AA, 4′-aminoacetophenone]
Bacterial growth (P. aeruginosa; [6]): only slightly retarded
average survival after 5 days (P. aeruginosa PA14 [1]): 50%

Nc1ccc(F)cc1C(=O)O [5-FABA, 5-fluoro-2-aminobenzoic acid]
HAQ production / HAQs synthesis [2]: inhibited HAQ production
inhibition of 4-hydroxy-2-alkylquinoline (HAQ) production [2]: potent inhibitors

Nc1cccc(Cl)c1C(=O)O [6-CABA, 6-chloro-2-aminobenzoic acid]
bacterial growth (PA14) (P. aeruginosa): without affecting bacterial growth; also recorded: does not inhibit PA14 growth
HAQ production / HAQs synthesis [2]: inhibited HAQ production; also recorded: completely halted
inhibition of 4-hydroxy-2-alkylquinoline (HAQ) production [2]: potent inhibitors
production of the principal members of the three main HAQ families (HHQ, HQNO, PQS) [2]: dramatically decreased
final mice survival rate at 7 days post burn and infection (P. aeruginosa PA14 [1]): ~40%
accumulation of anthranilic acid (PqsA): transient accumulation
effect of increasing concentrations of AA on inhibition of HAQ production (PqsA): reversed the inhibition
pyocyanin production (pyocyanin production): without abrogating pyocyanin production

Nc1cccc(F)c1C(=O)O [6-FABA, 6-fluoro-2-aminobenzoic acid]
bacterial growth (PA14) (P. aeruginosa): without affecting bacterial growth
HAQ production / HAQs synthesis [2]: inhibited HAQ production; also recorded: completely halted
inhibition of 4-hydroxy-2-alkylquinoline (HAQ) production [2]: potent inhibitors; also recorded: potently inhibit
production of the principal members of the three main HAQ families (HHQ, HQNO, PQS) [2]: dramatically decreased; also recorded: strongly inhibited
time course of mortality (P. aeruginosa PA14 [1]; single IV injection 20 mM at 6 hr BI (FIG. 26)): delayed mortality
survival (P. aeruginosa PA14 [1]; single IV injection 20 mM at 6 hr BI, control 10% (FIG. 26)): 40%
survival (P. aeruginosa PA14 [1]; single IV injection 20 mM at 12 hr BI (FIG. 26)): up to 60%
final mice survival rate at 7 days post burn and infection (P. aeruginosa PA14 [1]): ~35%
toxicity (deaths) ([3]; second IV injection of 20 mM at 12 or 18 hr): a significant number of mice die
mortality ([3]; second IV injection of 20 mM at 24 hr): 10%
toxicity ([3]; single IV injection 100 μl 20 mM, 6 hrs post-burn): non-toxic
systemic dissemination of P. aeruginosa (cfu/mg in muscle adjacent to burn) (P. aeruginosa PA14 [4]; 100 μL of 20 mM 6-FABA post-burn and infection (FIG. 28A)): limits significantly the systemic dissemination
bacteria in blood (P. aeruginosa PA14 [4]; 100 μL of 20 mM 6-FABA, blood at 24 hrs (FIG. 28B)): no bacteria are detected
accumulation of anthranilic acid (PqsA): transient accumulation
effect of increasing concentrations of AA on inhibition of HAQ production (PqsA): reversed the inhibition
pyocyanin production (pyocyanin production): without abrogating pyocyanin production
solubility (physchem): 20 mM (≈ 3100 µg/mL)

CCCCCCCc1cc(O)c2ccccc2n1 [HHQ, 4-hydroxy-2-heptylquinoline, reference compound]
MvfR-dependent pqsA-lacZ activity [5]: induce MvfR-dependent pqsA-lacZ activity
MvfR-pqsA promoter binding (MvfR): potentiate MvfR-pqsA promoter binding, with weaker activity seen with HHQ versus PQS

COC(=O)c1ccccc1N [MA, methyl anthranilate, reference compound]
PA14 growth (P. aeruginosa; methylanthranilate (FIG. 25B)): inhibits PA14 growth
PQS production [2]: prevents PQS production
levels of HAQs [2]: reduces the levels of several HAQs
production of N-oxides [2]: production of N-oxides at very high concentrations

CCCCCCCc1nc2ccccc2c(O)c1O [PQS, 3,4-dihydroxy-2-heptylquinoline, reference compound]
MvfR-dependent pqsA-lacZ activity [5]: induce MvfR-dependent pqsA-lacZ activity
MvfR-pqsA promoter binding (MvfR): potentiate MvfR-pqsA promoter binding
